Measurements taken from ChEMBL document CHEMBL1132191, “Prediction of the binding free energies of new TIBO-like HIV-1 reverse transcriptase inhibitors using a combination of PROFEC, PB/SA, CMC/MD, and free energy calculations” (J Med Chem, 1999).

Biological target: Human immunodeficiency virus type 1 reverse transcriptase (Human immunodeficiency virus 1, UniProt Q72547)
Assay: Effective concentration against HIV-1 reverse transcriptase
Type: functional

Structure (SMILES) | EC50
CC(C)=CCN1Cc2cccc3[nH]c(=S)n(c23)C[C@@H]1C | 44 nM
C=CCN1Cc2cccc3[nH]c(=O)n(c23)C[C@@H]1C | 4200 nM
C=CCN1[C@H](C)c2cccc3[nH]c(=S)n(c23)C[C@@H]1C | 790 nM
CC(C)=CCN1Cc2c(Cl)ccc3[nH]c(=S)n(c23)C[C@@H]1C [TIVIRAPINE] | 5.1 nM

Further compounds by falling EC50, results first:

EC50 | Structure (SMILES)
39 nM | C=CCN1[C@@H](C)Cn2c(=S)[nH]c3cccc(c32)[C@@H]1C
33 nM | CC(C)=CCN1Cc2cc(Cl)cc3[nH]c(=S)n(c23)C[C@@H]1C
14 nM | C=CCN1Cc2c(C)ccc3[nH]c(=S)n(c23)C[C@@H]1C
4.6 nM | C=CCN1Cc2c(Cl)ccc3[nH]c(=S)n(c23)C[C@@H]1C
